Assay results: patent publication US20030124718A1, “Vaccine composition” (priority 2001, published 2003)

Legend:
[1] = system: SIV-specific CD8+ T cell responses; test: IFNγ ELISPOT of epitope-specific CD8+ T cell responses in DNA-immunized / SIV-infected macaques; type: in vivo, rhesus macaques; conditions: for Epitope-specific responses, Group A monkeys, 2 weeks post-SIV infection / Epitope-specific responses, Group A monkeys, Post-immunization, Pre-infection / Epitope-specific responses, Group C monkeys, 2 weeks post-SIV infection: ELISPOT; for Epitope-specific responses, Group A monkeys, 2 weeks post-SIV infection / Epitope-specific responses, Group A monkeys, Post-immunization, Pre-infection: Mamu-A*01 positive macaques immunized before and after infection; for Epitope-specific responses, Group A monkeys, Post-immunization, Pre-infection: after DNA immunization, before SIV infection; for Epitope-specific responses, Group C monkeys, 2 weeks post-SIV infection: Mamu-A*01 positive macaques immunized only after infection; for CD8+ T cell response against peptide after DNA immunization: Group A monkeys, ELISPOT after 1st-4th DNA immunization
Experimental: Each monkey received a total of 4 immunizations consisting of 32.0 μg DNA (3.2 μg of each DNA vector) per immunization spaced 4-8 weeks apart. The epitope specificity of the CD8+ T cell responses was determined by ELISPOT following the 1st, 2nd, 3rd or 4th DNA immunization.
ELISPOTs were performed essentially as described (Roy et al. 2000). Briefly, antibody pairs against rhesus monkey IFNγ (Cytech-BV, Amsterdam, The Netherlands) were used to measure the number of r cells that secrete IFNγ. PBMC were cultured at 2 different dilutions in 96 well nitrocellulose filter plates (Millipore) previously coated with anti-cytokine mAbs. ^2 μg/ml of the appropriate MamuA*01 CTL peptide or pepset (Chiron) was then added.
CD8+ T cell responses were measured by ELISPOT. In A*01 positive monkeys, the average cumulative ELISPOT was determined at each timepoint by measuring responses following stimulation with 10 representative epitopes included in the vaccine. In A*01 negative monkeys, cumulative ELISPOT values were determined using gag and tat peptide pools.

MHC = conditions: Table 1 characteristics, from references; cited from earlier work
[2] = Table 1 characteristics, from references; cited from earlier work
[3] = system: SIV gag recombinant protein; test: Proliferation analysis of PBMC; type: in vivo, rhesus macaques; conditions: proliferative responses to SIV gag
Experimental: At each time point PBMC were isolated from whole blood by density gradient centrifugation over Ficoll-Hypaque and resuspended in complete RPMI media containing 10% human serum (R10 medium). In 96-well flat bottom plates, 2×10^5 PBMC/well were incubated for 6 days with 0.2 μg/well protein in R10 media. PBMC were stimulated 10 μg/ml of SIV gag recombinant protein (Intracel). Sixteen hours before the end of the assay, each well was pulsed with 1 μCi ^3H-thymidine. Cells were harvested and the isotope incorporation measured by scintillation spectroscopy. All assays were performed in triplicates.
Proliferative responses to SIV gag were measured during combined PMPA+DNA vaccine therapy (weeks 0-28) and after discontinuation of therapy (weeks 30-46 to date).

SIV/DeltaB670 = test: Plasma viral loads (real time PCR) after SIV challenge, PMPA + DNA vaccine immunotherapy

| Compound | Epitope-specific responses, Group A monkeys, 2 weeks post-SIV infection [1] | Epitope-specific responses, Group A monkeys, Post-immunization, Pre-infection [1] | Epitope-specific responses, Group C monkeys, 2 weeks post-SIV infection [1] | CD8+ T cell response against peptide after DNA immunization [1] | immunogenicity [2] | other results |
| --- | --- | --- | --- | --- | --- | --- |
| STPESANL [Tat28-35SL8] | +/+ (A + response = a minimum of 25 spot forming cells/1 × 10^6 PBMC was detected in at least 1 of the 8 monkeys per group) | +/+ (A + response = a minimum of 25 spot forming cells/1 × 10^6 PBMC was detected in at least 1 of the 8 monkeys per group) | NA/+ (A + response = a minimum of 25 spot forming cells/1 × 10^6 PBMC was detected in at least 1 of the 8 monkeys per group) | Significant responses | – | – |
| GSPAIFQYTM [Pol359-365GM10] | +/+ (A + response = a minimum of 25 spot forming cells/1 × 10^6 PBMC was detected in at least 1 of the 8 monkeys per group) | +/+ (A + response = a minimum of 25 spot forming cells/1 × 10^6 PBMC was detected in at least 1 of the 8 monkeys per group) | – | Significant responses | – | – |
| CAPPGYALL [Env235-243CL9] | +/+ (A + response = a minimum of 25 spot forming cells/1 × 10^6 PBMC was detected in at least 1 of the 8 monkeys per group) | +/+ (A + response = a minimum of 25 spot forming cells/1 × 10^6 PBMC was detected in at least 1 of the 8 monkeys per group) | NA/+ (A + response = a minimum of 25 spot forming cells/1 × 10^6 PBMC was detected in at least 1 of the 8 monkeys per group) | Significant responses | – | – |
| LAPVPIPFA [Gag372-380LA9] | +/+ (A + response = a minimum of 25 spot forming cells/1 × 10^6 PBMC was detected in at least 1 of the 8 monkeys per group) | +/+ (A + response = a minimum of 25 spot forming cells/1 × 10^6 PBMC was detected in at least 1 of the 8 monkeys per group) | – | Significant responses | – | – |
| CTPYDINQM [Gag181-189CM9] | +/+ (A + response = a minimum of 25 spot forming cells/1 × 10^6 PBMC was detected in at least 1 of the 8 monkeys per group) | +/+ (A + response = a minimum of 25 spot forming cells/1 × 10^6 PBMC was detected in at least 1 of the 8 monkeys per group) | NA/+ (A + response = a minimum of 25 spot forming cells/1 × 10^6 PBMC was detected in at least 1 of the 8 monkeys per group) | Significant responses | – | – |
| LLWKGEGAV | – | – | – | – | MHC, strong | binding affinity to MHC (MHC): CTL epitope, high |
| ILKEPVHGVY | – | – | – | – | MHC, strong | binding affinity to MHC (MHC): CTL epitope, high |
| QVPSLQYLA [Vifl44-152QA9] | +/+ (A + response = a minimum of 25 spot forming cells/1 × 10^6 PBMC was detected in at least 1 of the 8 monkeys per group) | +/+ (A + response = a minimum of 25 spot forming cells/1 × 10^6 PBMC was detected in at least 1 of the 8 monkeys per group) | NA/+ (A + response = a minimum of 25 spot forming cells/1 × 10^6 PBMC was detected in at least 1 of the 8 monkeys per group) | Significant responses | – | – |
| RIQRGPGRAFVTIGK | – | – | – | – | epitopes, highly | – |
| C[C@H](Cn1cnc2c(N)ncnc21)OCP(=O)(O)O [Group E] | – | – | – | – | – | Average Stimulation Index +/− SE post-therapy (wks 30-46) ([3]; after discontinuing therapy, weeks 30-46): 1.4 +/− 0.2; Average Stimulation Index +/− SE during therapy (wks 0-28) ([3]; combined PMPA + DNA vaccine therapy, weeks 0-28): 1.8 +/− 0.5; Geometric mean virus loads during therapy with DNA vaccines + PMPA (weeks 5-28) (SIV/DeltaB670; weeks 5-28, during therapy): 7,192 no. of copies of viral RNA/ml plasma; Immunotherapeutic efficacy: number of monkeys maintaining virus loads at < 5000 viral RNA copies/ml plasma, during therapy (weeks 5-28) (SIV/DeltaB670; weeks 5-28, during therapy with DNA vaccines + PMPA): 4/8; Geometric mean virus loads after discontinuation of drug and vaccine therapy (weeks 30-46) (SIV/DeltaB670; weeks 30-46, after discontinuation): 38,428 no. of copies of viral RNA/ml plasma; Immunotherapeutic efficacy: number of monkeys maintaining virus loads at < 5000 viral RNA copies/ml plasma, after discontinuation (weeks 30-46) (SIV/DeltaB670; weeks 30-46, after discontinuation of drug and vaccine therapy): 1/8 |
| FRKQNPDIVIYQYMDDLYVG | – | – | – | – | epitope, strong | – |
| TVPWPNASL [Env622-630TL9] | +/+ (A + response = a minimum of 25 spot forming cells/1 × 10^6 PBMC was detected in at least 1 of the 8 monkeys per group) | +/+ (A + response = a minimum of 25 spot forming cells/1 × 10^6 PBMC was detected in at least 1 of the 8 monkeys per group) | – | Significant responses | – | – |
